In US20220380375A1, “SUBSTITUTED AROMATIC FUSED RING DERIVATIVE AND COMPOSITION COMPRISING SAME, AND USE THEREOF” (Shenzhen TargetRx, Inc., priority 2019, published 2022):

Key:
Type in all cases: cell-based
[1] = molecular target: T1, Ba/F3 FLT3-ITD^D835Y cells (Homo sapiens, UniProt P36888, D835Y, cells depend on it, form not given); assay: Cytotoxicity assay (CellTiter-Glo), Ba/F3 FLT3-ITD D835Y; conditions: CellTiter-Glo, 72 hrs; read-out: Ba/F3 FLT3-ITD^D835Y IC50
T1 construct: Ba/F3 FLT3-ITD^D835Y IC50 (nM); other: CellTiter-Glo, 72 hrs
T1 sequence (P36888 1-993 D835Y): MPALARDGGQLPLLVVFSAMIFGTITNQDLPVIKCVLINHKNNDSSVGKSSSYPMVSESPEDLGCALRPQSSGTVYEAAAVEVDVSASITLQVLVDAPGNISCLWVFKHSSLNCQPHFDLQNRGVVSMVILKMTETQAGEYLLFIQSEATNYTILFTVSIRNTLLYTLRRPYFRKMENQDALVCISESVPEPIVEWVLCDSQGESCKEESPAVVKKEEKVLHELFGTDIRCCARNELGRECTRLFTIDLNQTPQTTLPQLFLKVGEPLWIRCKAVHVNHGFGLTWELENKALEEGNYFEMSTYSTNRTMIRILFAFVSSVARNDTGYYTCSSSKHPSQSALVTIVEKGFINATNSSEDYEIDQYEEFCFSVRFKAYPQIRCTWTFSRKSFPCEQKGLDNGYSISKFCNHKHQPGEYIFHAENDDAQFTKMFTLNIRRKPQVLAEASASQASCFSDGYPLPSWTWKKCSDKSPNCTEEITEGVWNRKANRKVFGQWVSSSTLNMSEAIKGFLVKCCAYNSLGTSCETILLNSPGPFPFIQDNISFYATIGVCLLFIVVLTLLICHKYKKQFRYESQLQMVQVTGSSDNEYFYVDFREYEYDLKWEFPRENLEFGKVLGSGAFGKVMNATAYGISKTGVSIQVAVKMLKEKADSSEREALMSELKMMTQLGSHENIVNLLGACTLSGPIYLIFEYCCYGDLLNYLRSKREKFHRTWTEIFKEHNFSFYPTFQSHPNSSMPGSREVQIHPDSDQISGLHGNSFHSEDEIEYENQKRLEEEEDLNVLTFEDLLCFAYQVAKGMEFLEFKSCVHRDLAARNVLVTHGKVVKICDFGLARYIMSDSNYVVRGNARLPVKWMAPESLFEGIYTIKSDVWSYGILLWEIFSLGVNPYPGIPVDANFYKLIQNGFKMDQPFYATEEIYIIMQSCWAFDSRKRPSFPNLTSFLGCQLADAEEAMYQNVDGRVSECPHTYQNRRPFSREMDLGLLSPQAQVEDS
Experimental: (§1) Inhibitory effects of example compounds on the activity of Ba/F3 parental generation, Ba/F3 KIF5B-RET, Ba/F3 KIF5B-RET^V804M, Ba/F3 KIF5B-RET^V804L, Ba/F3 KIF5B-RET^G810R, Ba/F3 FLT3-ITD, Ba/F3 FLT3-ITD^D835Y, Ba/F3 FLT3-ITD^F691L cells were determined.
(§2) Materials and reagents: fetal bovine serum FBS (GIBCO, Cat #10099141), CellTiter-Glo® Luminescent Cell Viability Assay kit (Promega, Cat #G7572), 96-well black-wall clear flat-bottom plate (Corning®, Cat #3603).
(§3) 1. Cells in the logarithmic growth phase were harvested and counted with a […]. Cell viability was detected by a trypan blue exclusion method, ensuring that cell viability was 90% or more; 2. Cell concentration was adjusted to about 3000 cells/well; 90 μl of cell suspension was added to each well of the 96-well plate; 3. The cells in the 96-well plate were incubated overnight under the condition of 37° C., 5% CO2, and 95% humidity.
(§4) 1. A series of compound solutions were formulated by 3.16-fold serial dilution starting from a concentration of 10 μM, resulting in 9 concentrations. 10 μL of the compound solutions were added in each well of the 96-well plate seeded with cells in triplicate for each compound concentration; 2. The cells in the 96-well plate added with compounds were further incubated under the condition of 37° C., 5% CO2, and 95% humidity for 72 hrs, and then CTG analysis was carried out.
(§5) 1. CTG reagent was thawed, and the cell plate was equilibrated at room temperature for 30 minutes; 2. An equal volume […] of CTG solution was added to each well; 3. The cell plate was shaken on an orbital shaker for 5 minutes to lyse the cells; 4. The cell plate was placed at RT for 20 minutes to stabilize the luminescence signal; 5. Luminescence value was read.
(§6) Data were Analyzed by GraphPad Prism 5.0 Software, and Fitted by Nonlinear S-Curve Regression to obtain a dose-response curve, from which IC50 values were calculated.
(§7) Cell survival rate (%)=(luminescence value of drug to be tested−luminescence value of culture medium control)/(luminescence value of cell control−luminescence value of culture medium control)×100%.

[2] = tested on: Ba/F3 FLT3-ITD^D835Y cells; assay: as above; conditions: ratio of Ba/F3 parental IC50 to Ba/F3 FLT3-ITD^D835Y IC50
Experimental: as §1, §2, §3, §4, §5, §6, §7

Ba/F3 FLT3-ITD cells = assay: Cytotoxicity assay (CellTiter-Glo), Ba/F3 FLT3-ITD; conditions: ratio of Ba/F3 parental IC50 to Ba/F3 FLT3-ITD IC50
Experimental: as §1, §2, §3, §4, §5, §6, §7

SMILES	GI50 [1]	Ba/F3 FLT3-ITD^D835Y Selectivity on parental generation [2]	Ba/F3 FLT3-ITD Selectivity on parental generation (Ba/F3 FLT3-ITD cells)
CC(C)n1nc(-c2ccc(NC(=O)Nc3cc(C(F)(F)F)ccc3F)cc2)c2c(N)ncnc21 [AD80, reference compound]	30.1 nM	21.82	1211.9
CC(C)n1nc(-c2ccc(CC(=O)Nc3cc(C(C)(C)C(F)(F)F)on3)cc2)c2c(N)ncnc21 [Compound T-1, 2-(4-(4-amino-1-isopropyl-1H-pyrazolo[3,4-d]pyrimidin-3-yl)phenyl)-N-(5-(1,1,1-trifluoro-2-methylprop-2-yl)isoxazol-3-yl)acetamide]	14.4 nM	137.97	5227.1
CC(C)n1nc(-c2ccc(NC(=O)Nc3cc(C(C)(C)C(F)(F)F)on3)cc2)c2c(N)ncnc21 [Compound T-2, 1-(4-(4-amino-1-isopropyl-1H-pyrazolo[3,4-d]pyrimidin-3-yl)phenyl)-3-(5-(1,1,1-trifluoro-2-methylprop-2-yl)isoxazol-3-yl)urea]	6.05 nM	35.48	824.0
CC(C)n1cc(-c2ccc(CC(=O)Nc3cc(C(C)(C)C(F)(F)F)on3)cc2)c2c(N)ncnc21 [Compound T-3, 2-(4-(4-amino-7-isopropyl-7H-pyrrolo[2,3-d]pyrimidin-5-yl)phenyl)-N-(5-(1,1,1-trifluoro-2-methylprop-2-yl)isoxazol-3-yl)acetamide]	2.92 nM	218.67	7244.4
CC(C)c1nc(-c2ccc(CC(=O)Nc3cc(C(C)(C)C(F)(F)F)on3)cc2)c2c(N)nccn12 [Compound T-4, 2-(4-(8-amino-3-isopropylimidazo[1,5-a]pyrazin-1-yl)phenyl)-N-(5-(1,1,1-trifluoro-2-methylprop-2-yl)isoxazol-3-yl)acetamide]	23.1 nM	32.03	7011.0
CC(C)c1cc(-c2ccc(CC(=O)Nc3cc(C(C)(C)C(F)(F)F)on3)cc2)c2c(N)ncnn12 [Compound T-5, 2-(4-(4-amino-7-isopropylpyrrolo[2,1-f][1,2,4]triazin-5-yl)phenyl)-N-(5-(1,1,1-trifluoro-2-methylprop-2-yl)isoxazol-3-yl)acetamide]	35.8 nM	133.6	2530.7
CC(C)n1nc(-c2ccc(CC(=O)Nc3cc(C(C)(C)C(F)(F)F)on3)c(F)c2)c2c(N)ncnc21 [Compound T-6, 2-(4-(4-amino-1-isopropyl-1H-pyrazolo[3,4-d]pyrimidin-3-yl)-2-fluorophenyl)-N-(5-(1,1,1-trifluoro-2-methylprop-2-yl)isoxazol-3-yl)acetamide]	9.6 nM	193.58	5238.7
CC(C)n1nc(-c2ccc(CC(=O)Nc3cc(C(C)(C)C(F)(F)F)on3)cn2)c2c(N)ncnc21 [Compound T-7, 2-(6-(4-amino-1-isopropyl-1H-pyrazolo[3,4-d]pyrimidin-3-yl)pyridin-3-yl)-N-(5-(1,1,1-trifluoro-2-methylprop-2-yl)isoxazol-3-yl)acetamide]	5.57 nM	32.63	3280.6
CC(C)n1nc(-c2ccc(CC(=O)Nc3cc(C(C)(C)C(F)(F)F)no3)cc2)c2c(N)ncnc21 [Compound T-8, 2-(4-(4-amino-1-isopropyl-1H-pyrazolo[3,4-d]pyrimidin-3-yl)phenyl)-N-(3-(1,1,1-trifluoro-2-methylprop-2-yl)isoxazol-5-yl)acetamide]	7.34 nM	500.9	14708
CC(C)n1nc(-c2ccc(CC(=O)Nc3cc(C(C)(C)C(F)(F)F)no3)cn2)c2c(N)ncnc21 [Compound T-9, 2-(6-(4-amino-1-isopropyl-1H-pyrazolo[3,4-d]pyrimidin-3-yl)pyridin-3-yl)-N-(3-(1,1,1-trifluoro-2-methylprop-2-yl)isoxazol-5-yl)acetamide]	46.9 nM	87.8	750.1
CC(C)c1nc(-c2ccc(CC(=O)Nc3cc(C(C)(C)C(F)(F)F)on3)cc2)c2c(N)ncnn12 [Compound T-10, 2-(4-(4-amino-7-isopropylimidazo[5,1-f][1,2,4]triazin-5-yl)phenyl)-N-(5-(1,1,1-trifluoro-2-methylprop-2-yl)isoxazol-3-yl)acetamide]	46.4 nM	48.3	7006.3
[2H]C([2H])([2H])C(n1nc(-c2ccc(CC(=O)Nc3cc(C(C)(C)C(F)(F)F)no3)cc2)c2c(N)ncnc21)C([2H])([2H])[2H] [Compound T-11, 2-(4-(4-amino-1-(propan-2-yl-1,1,1,3,3,3-d6)-1H-pyrazolo[3,4-d]pyrimidin-3-yl)phenyl)-N-(3-(1,1,1-trifluoro-2-methylpropan-2-yl)isoxazol-5-yl)acetamide]	17.9 nM	307.7	7543.8
[2H]C([2H])([2H])C(n1cc(-c2ccc(CC(=O)Nc3cc(C(C)(C)C(F)(F)F)on3)cc2)c2c(N)ncnc21)C([2H])([2H])[2H] [Compound T-12, 2-(4-(4-amino-7-(propen-2-yl-1,1,1,3,3,d6)-7H-pyrrolo[2,3-d]pyrimidin-5-yl)phenyl)-N-(5-(1,1,1-trifluo-2-methylpropan-2-yl)isoxazol-3-yl)acetamide]	12.3 nM	87.2	1531.4
